According to patent publication US9920069B2, “Compounds for treatment of fluoroquinolone-resistant bacteria” (The Board of Trustees of the University of Illinois, priority 2014, dated 2018):
≈ marks a conversion by molar mass, not a printed value. Like-named read-outs stand apart in the source and are kept apart here.

Tests used:
physchem [1] = conditions: organic solvent or mixture, thermodynamic from solid
[2] = test system: S. aureus 29213 (WT GyrA and WT ParC); assay: microbe, parasite or virus in culture; type: cell-based; conditions: Staphylococcus aureus; WT GyrA and WT ParC; read-out: MIC against S. aureus 29213
Protocol: (§1) Susceptibility testing was performed in triplicate using the microdilution broth method as outlined by the Clinical and Laboratory Standards Institute CLSI^52. MH broth was used.

human topoisomerase II = molecular target: T1, human topoisomerase II (Homo sapiens, UniProt P11388); assay: Human topoisomerase decatenation assay; type: biochemical; conditions: lowest inhibiting / highest without significant inhibition
T1 construct: purchased Inspiralis
T1 sequence (P11388 whole entry): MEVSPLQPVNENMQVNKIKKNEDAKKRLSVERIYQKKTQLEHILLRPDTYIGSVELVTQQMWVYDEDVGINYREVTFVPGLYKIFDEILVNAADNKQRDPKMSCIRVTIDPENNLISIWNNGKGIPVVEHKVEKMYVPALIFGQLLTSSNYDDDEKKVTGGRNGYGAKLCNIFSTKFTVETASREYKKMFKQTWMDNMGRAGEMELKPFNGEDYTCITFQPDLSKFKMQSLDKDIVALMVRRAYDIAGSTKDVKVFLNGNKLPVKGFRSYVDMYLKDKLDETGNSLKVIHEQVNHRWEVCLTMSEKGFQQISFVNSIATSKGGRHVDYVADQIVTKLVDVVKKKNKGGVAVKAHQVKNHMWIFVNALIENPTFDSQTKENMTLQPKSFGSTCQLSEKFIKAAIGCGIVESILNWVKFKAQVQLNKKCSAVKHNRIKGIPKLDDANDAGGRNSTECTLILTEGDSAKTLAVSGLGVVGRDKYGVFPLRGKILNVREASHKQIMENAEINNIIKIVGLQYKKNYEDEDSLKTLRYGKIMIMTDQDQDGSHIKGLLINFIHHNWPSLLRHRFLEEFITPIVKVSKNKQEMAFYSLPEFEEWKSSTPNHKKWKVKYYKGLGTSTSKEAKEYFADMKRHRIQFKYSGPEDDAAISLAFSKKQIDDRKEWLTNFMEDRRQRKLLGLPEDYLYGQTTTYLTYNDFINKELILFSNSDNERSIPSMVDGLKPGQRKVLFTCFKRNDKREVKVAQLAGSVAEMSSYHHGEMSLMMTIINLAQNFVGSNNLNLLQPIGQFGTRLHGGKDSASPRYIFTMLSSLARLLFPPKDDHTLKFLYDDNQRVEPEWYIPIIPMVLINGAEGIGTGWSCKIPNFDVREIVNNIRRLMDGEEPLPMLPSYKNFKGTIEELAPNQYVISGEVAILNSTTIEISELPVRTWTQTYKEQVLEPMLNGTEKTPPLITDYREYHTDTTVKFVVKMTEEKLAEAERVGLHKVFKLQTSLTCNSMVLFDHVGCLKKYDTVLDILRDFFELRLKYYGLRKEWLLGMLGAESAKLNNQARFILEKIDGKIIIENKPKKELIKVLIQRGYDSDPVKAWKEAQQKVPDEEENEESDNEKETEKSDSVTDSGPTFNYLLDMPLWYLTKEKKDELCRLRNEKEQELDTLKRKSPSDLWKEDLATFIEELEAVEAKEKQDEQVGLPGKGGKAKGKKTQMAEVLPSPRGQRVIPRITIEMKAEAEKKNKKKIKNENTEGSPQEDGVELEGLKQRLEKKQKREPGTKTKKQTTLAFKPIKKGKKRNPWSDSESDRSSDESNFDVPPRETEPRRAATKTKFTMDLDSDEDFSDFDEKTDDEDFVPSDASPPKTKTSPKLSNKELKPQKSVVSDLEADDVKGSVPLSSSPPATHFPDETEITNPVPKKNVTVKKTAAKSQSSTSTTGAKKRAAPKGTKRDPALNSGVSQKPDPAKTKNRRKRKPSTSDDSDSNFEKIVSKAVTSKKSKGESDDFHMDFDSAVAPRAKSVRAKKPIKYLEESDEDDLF
Protocol: The decatenation assay was performed with the Human Topo II Decatenation Assay Kit (Inspiralis) according to the manufacturer's instructions with minor modifications. First, a master mix was made containing 2 μL 10× assay buffer (500 mM Tris.HCl, pH 7.5, 1250 mM NaCl, 100 mM MgCl2, 50 mM DTT, 1000 μg/mL albumin), 0.67 μL 30 mM ATP, 1.34 μL 0.1 ng/μL kDNA, and 14.3 μL of nuclease free water per sample is made. DMSO or 30× compound is added to a 0.5 mL Eppendorf tube (0.67 μL per tube). The master mix is then added to each tube (18.3 μL per tube). Finally, 1 U of human topoisomerase (1 μL of 1 U/μL stock) is added to each tube for a final volume of 20 μL. The tubes are then incubated at 37° C. for 30 min. Reactions are stopped by the addition of 20 μL of 24:1 chloroform:isoamyl alcohol and 20 μL of stop dye (40% sucrose, 1 mM EDTA, 100 mM TrisHCl pH 7.5, 0.5 μg/mL bromophenol blue). Samples were run on 1% agarose gels containing 0.5 μg/mL ethidium bromide for 1 h at 110V or until the dye front was approximately halfway down the gel. Gels were imaged on a Molecular Imager Gel Doc XR+ (Biorad).

physchem [3] = conditions: for Solubility in pH 7.4 PBS: three replicates ± SEM
Protocol: Enough PBS was added to make a 1 mg/mL solution. Compounds were then assessed by LC-MS and compared to a calibration curve to determine the solubility. […] Data shown is from three independent replicates±SEM. […] Between DMSO additions, the vial was vortexed and sonicated.
The compound was vortexed for ˜30 seconds before being placed into a bath sonicator (Cole Parmer, ultrasonic cleaner) for 1 h. […] The tubes were vortexed again for 30 s before being centrifuged at maximum speed (13,000×g) for 10 minutes. The supernatant was then filtered through a 0.22 μm syringe filter (Millipore Millex MP). […] Three independent replicates of each compound were performed. A calibration curve for each compound was generated from 1-400 μM by dissolving the compound in DMSO and making dilutions of the stock in DMSO. […] The concentration of the samples was calculated based on the calibration curves.

[4] = Pharmacokinetic assessment, serum by HPLC; type: in vivo, C57BL/6 mice; conditions: mouse serum
Protocol: FIG. 13. Pharmacokinetic analysis of DNM, DNM-2, and DNM-3. C57/BL6 mice were treated with 50 mg kg^−1 DNM, DNM-2, or DNM-3 via oral gavage. After the indicated time points (15, 30, 60, 120, 240, and 480 min), mice were sacrificed and the serum concentrations of DNM, DNM-2, and DNM-3 was determined by HPLC.
The animal studies (PK, in vivo toxicity and in vivo efficacy) were carried out in strict accordance with the recommendations in the Guide for the Care and Use of Laboratory Animals of the National Institutes of Health. […] In these studies, 10-12 week old female C57BL/6 mice purchased from Charles River were used. DNM, DNM-2, and DNM-3 were formulated as slurries at 8.3 mg mL^−1 in 25% Cremophor RH40/water (v/v). Before beginning the pharmacokinetic assessment, mice were first tested for their ability to tolerate the DNM, DNM-2, and DNM-3 at 50 mg kg^−1 (p.o.). […] At specified time points, mice were sacrificed and blood was collected, centrifuged, and the serum was frozen at −80° C. until analysis. The proteins in a 50 μL aliquot of serum were precipitated by the addition of 50 μL of acetonitrile and the sample was centrifuged to remove the proteins. Serum concentrations of DNM, DNM-2, and DNM-3 were determined by HPLC. PK parameters were determined using GraphPad Prism Version 5.00 for Windows.

[5] = test system: MRSA clinical isolate SAU.2996; assay: MIC, microdilution broth; type: cell-based, S. aureus; conditions: Staphylococcus aureus, MRSA, read-out: MIC
Protocol: as §1

[6] = test system: MRSA clinical isolate SAU.669; assay: MIC, microdilution broth; type: cell-based, S. aureus; conditions: Staphylococcus aureus
Protocol: as §1

[7] = test system: MRSA clinical isolate SAU.419; assay: MIC, microdilution broth; type: cell-based, S. aureus; conditions: Staphylococcus aureus, MRSA, read-out: MIC
Protocol: as §1

[8] = test system: MRSA clinical isolate SAU.3021; assay: MIC, microdilution broth; type: cell-based, S. aureus; conditions: Staphylococcus aureus, MRSA, read-out: MIC
Protocol: as §1

[9] = test system: MRSA clinical isolate SAU.3025; assay: MIC, microdilution broth; type: cell-based, S. aureus; conditions: Staphylococcus aureus
Protocol: as §1

[10] = test system: MRSA clinical isolate SAU.555; assay: MIC, microdilution broth; type: cell-based, S. aureus; conditions: Staphylococcus aureus
Protocol: as §1

[11] = test system: MRSA clinical isolate SAU.446; assay: MIC, microdilution broth; type: cell-based, S. aureus; conditions: Staphylococcus aureus
Protocol: as §1

[12] = test system: MRSA clinical isolate SAU.494; assay: microbe, parasite or virus in culture; type: cell-based, S. aureus; conditions: Staphylococcus aureus
Protocol: as §1

[13] = test system: MRSA clinical isolate SAU.1118; assay: MIC, microdilution broth; type: cell-based, S. aureus; conditions: Staphylococcus aureus
Protocol: as §1

[14] = test system: MRSA clinical isolate SAU.3024; assay: MIC, microdilution broth; type: cell-based, S. aureus; conditions: Staphylococcus aureus
Protocol: as §1

[15] = test system: MRSA clinical isolate SAU.709; assay: microbe, parasite or virus in culture; type: cell-based, S. aureus; conditions: Staphylococcus aureus
Protocol: as §1

[16] = test system: MRSA clinical isolate SAU.710; assay: microbe, parasite or virus in culture; type: cell-based, S. aureus; conditions: Staphylococcus aureus
Protocol: as §1

[17] = test system: MRSA clinical isolate SAU.492; assay: microbe, parasite or virus in culture; type: cell-based, S. aureus; conditions: Staphylococcus aureus
Protocol: as §1

[18] = test system: MRSA clinical isolate SAU.495; assay: microbe, parasite or virus in culture; type: cell-based, S. aureus; conditions: Staphylococcus aureus
Protocol: as §1

[19] = test system: MRSA clinical isolate SAU.708; assay: microbe, parasite or virus in culture; type: cell-based, S. aureus; conditions: Staphylococcus aureus
Protocol: as §1

[20] = test system: MRSA clinical isolate SAU.493; assay: microbe, parasite or virus in culture; type: cell-based, S. aureus; conditions: Staphylococcus aureus
Protocol: as §1

[21] = test system: MRSA clinical isolate SAU.489; assay: microbe, parasite or virus in culture; type: cell-based, S. aureus; conditions: Staphylococcus aureus
Protocol: as §1

[22] = test system: MRSA clinical isolate SAU.491; assay: microbe, parasite or virus in culture; type: cell-based, S. aureus; conditions: Staphylococcus aureus
Protocol: as §1

[23] = test system: MRSA clinical isolate SAU.496; assay: microbe, parasite or virus in culture; type: cell-based, S. aureus; conditions: Staphylococcus aureus
Protocol: as §1

[24] = subcutaneously, orally, or by IP injection; cited from earlier work
[25] = test system: K. pneuomoniae, S. aureus, or M. tuberculosis; conditions: mice infected with various bacteria; cited from earlier work

Compound: Cc1cc(=O)n(C)c2c3c4c(cc12)c(C)cc(=O)n4C(C)O3 (stereo not shown) [Compound 5]
- solubility (physchem [1]): 3.4 mM (≈ 1010 µg/mL)
- MIC [2]: 4 µg/mL (≈ 13.5 µM)

Compound: COc1cccc2c1C(=O)c1c(O)c3c(c(O)c1C2=O)C[C@@](O)(C(=O)CO)C[C@@H]3O[C@H]1C[C@H](N)[C@H](O)[C@H](C)O1 [doxorubicin, reference compound]
- concentration inhibiting human topoisomerase II (human topoisomerase II): 3 µM

Compound: CCc1cc(=O)n(C)c2c3c4c(cc12)c(C)cc(=O)n4CO3 [Compound 4]
- Solubility in pH 7.4 PBS (physchem [3]): 53 μM
- solubility (physchem [1]): 4.7 mM (≈ 1390 µg/mL)
- MIC [2]: 8 µg/mL (≈ 27 µM)

Compound: CCCc1cc(=O)n(C)c2c3c4c(cc12)c(C)cc(=O)n4CO3 [Compound 7]
- solubility (physchem [1]): 5.8 mM (≈ 1800 µg/mL)
- MIC [2]: 16 µg/mL (≈ 51.6 µM)

Compound: Cc1cc(=O)n2c3c(c4c(cc13)c(C)cc(=O)n4CC(C)(C)C)OC2 [Compound 12]
- solubility (physchem [1]): 38.7 mM (≈ 13100 µg/mL)
- MIC [2]: 32 µg/mL (≈ 94.6 µM)

Compound: CCCc1cc(=O)n2c3c(c4c(cc13)c(C)cc(=O)n4C)OC2 [Compound 6]
- solubility (physchem [1]): 6.4 mM (≈ 1990 µg/mL)
- MIC [2]: 16 µg/mL (≈ 51.6 µM)

Compound: CCCc1cc(=O)n(C)c2c3c4c(cc12)c(CCC)cc(=O)n4CO3 [Compound 14]
- solubility at 1 h (physchem [3]; pH 7.4, aqueous buffer, thermodynamic from solid): < 0.001 mM
- solubility (physchem [1]): 18.3 mM (≈ 6190 µg/mL)
- MIC [2]: > 32 µg/mL

Compound: CCc1cc(=O)n(C)c2c3c4c(cc12)c(CC)cc(=O)n4CO3 [Compound 13]
- Solubility in pH 7.4 PBS (physchem [3]): 48 μM
- solubility (physchem [1]): 5.2 mM (≈ 1610 µg/mL)
- MIC [2]: > 32 µg/mL

Compound: CCc1cc(=O)n2c3c(c4c(cc13)c(C)cc(=O)n4C)OC2 [DNM-3]
- Solubility in pH 7.4 PBS (physchem [3]): 27 μM
- solubility (physchem [1]): 1.3 mM (≈ 385 µg/mL)
- AUC ([4]; 50 mg kg^−1 oral dose): 4000 ng·h/mL
- Cmax / peak serum concentration ([4]; 50 mg kg^−1 oral dose): 1260 ng/mL
- Cmax ([4]; 50 mg kg^−1 oral dose, read-out: Cmax / peak serum concentration): 4.3 µM
- AUC ([4]; 50 mg kg^−1 oral gavage): 4000 ng·h/mL
- Cmax ([4]; 50 mg kg^−1 oral gavage): 1260 ng/mL
- Tmax ([4]; 50 mg kg^−1 oral gavage): 1.1 h
- t1/2 ([4]; 50 mg kg^−1 oral gavage): 1.2 h
- MIC [2]: 8 µg/mL (≈ 27 µM)

Compound: CCCCCCn1c(=O)cc(C)c2cc3c(C)cc(=O)n4c3c(c21)OC4 [Compound 10]
- solubility (physchem [1]): 56.7 mM (≈ 20000 µg/mL)
- MIC [2]: > 64 µg/mL

Compound: Cc1cc(=O)n2c3c(c4c(cc13)c(C)cc(=O)n4CC(C)C)OC2 [Compound 11]
- solubility (physchem [1]): 7.1 mM (≈ 2300 µg/mL)
- MIC [2]: > 32 µg/mL

Compound: CCCCCn1c(=O)cc(C)c2cc3c(C)cc(=O)n4c3c(c21)OC4 [Compound 9]
- solubility (physchem [1]): 26.9 mM (≈ 9100 µg/mL)
- MIC [2]: 32 µg/mL (≈ 94.6 µM)

Compound: CO[C@@H]1[C@@H](OC(N)=O)[C@@H](O)[C@H](Oc2ccc3c(O)c(NC(=O)c4ccc(O)c(CC=C(C)C)c4)c(=O)oc3c2C)OC1(C)C [Novo, Novobiocin]
- MIC [5]: 0.5 µg/mL (≈ 0.816 µM)
- MIC [6]: 0.5 µg/mL (≈ 0.816 µM)
- MIC [7]: 0.25 µg/mL (≈ 0.408 µM)
- MIC [8]: 0.25 µg/mL (≈ 0.408 µM)
- MIC [9]: 0.25 µg/mL (≈ 0.408 µM)
- MIC [10]: 0.25 µg/mL (≈ 0.408 µM)
- MIC [11]: 0.5 µg/mL (≈ 0.816 µM)
- MIC ([12]; read-out: MIC): 0.125 µg/mL (≈ 0.204 µM)

Compound: CCCCn1c(=O)cc(CCC)c2cc3c(CCC)cc(=O)n4c3c(c21)OC4 [Compound 15]
- solubility (physchem [1]): 4.2 mM (≈ 1600 µg/mL)
- MIC [2]: > 32 µg/mL

Compound: CN[C@H](CC(C)C)C(=O)N[C@H]1C(=O)N[C@@H](CC(N)=O)C(=O)N[C@H]2C(=O)N[C@H]3C(=O)N[C@H](C(=O)N[C@H](C(=O)O)c4cc(O)cc(O)c4-c4cc3ccc4O)[C@H](O)c3ccc(c(Cl)c3)Oc3cc2cc(c3O[C@@H]2O[C@H](CO)[C@@H](O)[C@H](O)[C@H]2O[C@H]2C[C@](C)(N)[C@H](O)[C@H](C)O2)Oc2ccc(cc2Cl)[C@H]1O [VANC, vancomycin, reference compound]
- MIC [5]: 1 µg/mL (≈ 0.69 µM)
- MIC [13]: 2 µg/mL (≈ 1.38 µM)
- MIC [8]: 1 µg/mL (≈ 0.69 µM)
- MIC [14]: 2 µg/mL (≈ 1.38 µM)
- MIC [15]: 1 µg/mL (≈ 0.69 µM)
- MIC [16]: 2 µg/mL (≈ 1.38 µM)
- MIC [17]: 1 µg/mL (≈ 0.69 µM)
- MIC [18]: 2 µg/mL (≈ 1.38 µM)
- MIC [19]: 2 µg/mL (≈ 1.38 µM)
- MIC [12]: 1 µg/mL (≈ 0.69 µM)
- MIC [20]: 1 µg/mL (≈ 0.69 µM)
- MIC [21]: 2 µg/mL (≈ 1.38 µM)
- MIC [22]: 2 µg/mL (≈ 1.38 µM)
- MIC [23]: 1 µg/mL (≈ 0.69 µM)
- MIC [2]: 1 µg/mL (≈ 0.69 µM)

Compound: Cc1cc(=O)n2c3c(c4c(cc13)c(CO)cc(=O)n4C)OC2 [nybomycin]
- tolerability in mice [24]: well tolerated
- activity in infected mice [25]: no activity
